Experimental data taken from patent US10881720B2, “Nanoparticles for immune stimulation” (THE BOARD OF REGENTS OF THE UNIVERSITY OF TEXAS SYSTEM, priority 2014, dated 2021).

What was measured:
[1] = tested on: splenic B cells; assay: In vitro CFSE-dilution proliferation of B220+ B cells in splenocyte culture; format: cell-based, WT C57BL/6 mice; settings: over the doses tested (10 pg/ml, 10 ng/ml), three days
Method: (§1) Even activation of both iNKT and B cells by the weak agonist, soluble βGlcCer was enhanced by encapsulation of this glycolipid in nanoparticles (βGC-NanoP). Nanoparticles lacking glycolipids were not stimulatory for either iNKT or B cells in this assay (data not shown). Nanoparticles were assessed by Mass Spectrometry and Scanning Electron Microscopy for lipid content and particle size. In the study, spleen cells were isolated, then labeled with carboxyfluorescein diacetate succinimidyl ester (CFSE) and cultured for 3 days with soluble αGalCer, soluble βGlcCer, αGC-NanoPs, or βGC-NanoPs at concentrations of glycolipid noted. […] FIG. 2B is a graph showing a summary of the data in FIG. 2A. […] FIGS. 2C and 2D show the percentage of B220+ cells that dilute CFSE after 3 days of in vitro culture with soluble αGalCer and αGC-NanoP (FIG. 2C), or soluble βGlcCer and βGC-NanoP (FIG. 2D). Results shown are representative of 2 experiments, duplicate wells. *=p≤0.05 as compared to soluble glycolipid.
Total spleen cells from WT C57BL/6 mice were removed, a single cell suspension was created, and red blood cells were lysed. […] After three days of culture, cells were removed from the wells, labeled with fluorescently tagged lineage specific markers (anti-B220 for B cells and anti-TcRβ plus CD1d-tetramer for iNKT cells) and assessed for cell type specific CFSE dilution by FACS analysis. […]

[2] = tested on: iNKT cells; assay: In vitro CFSE-dilution proliferation of iNKT cells in splenocyte culture; format: cell-based, WT C57BL/6 mice; settings: for percent of iNKT cells proliferated (CFSE dilution): three days of culture
Method: as §1
Total spleen cells from WT C57BL/6 mice were removed, a single cell suspension was created, and red blood cells were lysed. Splenocytes were labeled with carboxyfluorescein succinimidyl ester (CFSE) using standard procedures and then cultured at 2×10^6 cells/well in a 96 well flat bottom tissue culture plate. At the initiation of this culture, cells were coincubated with 10 pg/ml or 10 ng/ml of αGalCer, βGlcCer, αGC-NanoP, βGC-NanoP, or left in media only. After three days of culture, cells were removed from the wells, labeled with fluorescently tagged lineage specific markers (anti-B220 for B cells and anti-TcRβ plus CD1d-tetramer for iNKT cells) and assessed for cell type specific CFSE dilution by FACS analysis. […] In comparison, 39% of iNKT cells proliferated in response to αGC-NanoP at the 10 ng/ml dose and 35% responded vigorously to the 10 pg/ml dose.

Row | Molecule | B cell proliferation (CFSE dilution) [1] | percent of iNKT cells proliferated (CFSE dilution) ([2]; 10 pg/ml glycolipid) | percent of iNKT cells proliferated (CFSE dilution) ([2]; 10 ng/ml glycolipid) [%] | stimulation of iNKT cells ([2]; either dose tested (10 pg/ml, 10 ng/ml), three days)
1 | CCCCCCCCCCCCCCCCCCCCCCCCCC(=O)N[C@@H](CO[C@H]1O[C@H](CO)[C@H](O)[C@H](O)[C@H]1O)[C@H](O)[C@H](O)CCCCCCCCCCCCCC [αGalCer, αGalactosylceramide] | only to the higher doses | not responsive | 44 | –
2 | βGlucosylceramide [βGlcCer] | not to the doses tested | – | – | neither βGlcCer alone nor βGC-NanoP were stimulatory
